{
  "source": "patent US8664276B2",
  "about": "“Stilbene analogs and methods of treating cancer” (University of Kentucky Research Foundation, priority 2011, dated 2014)",
  "key": {"[1]": {"target": "T1, MAT2B (Homo sapiens, UniProt Q9NZL9)", "T1 construct": "made in house; host or cells: E. coli BL21", "T1 sequence (Q9NZL9 1-334)": "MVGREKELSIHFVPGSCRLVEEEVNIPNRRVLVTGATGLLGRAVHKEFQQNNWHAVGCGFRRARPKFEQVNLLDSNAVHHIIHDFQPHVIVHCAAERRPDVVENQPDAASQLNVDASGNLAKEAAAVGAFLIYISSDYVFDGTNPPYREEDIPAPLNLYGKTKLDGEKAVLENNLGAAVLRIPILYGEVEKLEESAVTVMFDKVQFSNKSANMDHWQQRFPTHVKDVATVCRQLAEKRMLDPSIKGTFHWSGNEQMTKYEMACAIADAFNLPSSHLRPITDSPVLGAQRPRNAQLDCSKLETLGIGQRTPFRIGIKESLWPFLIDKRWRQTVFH", "assay": "Streptavidin bead pull-down binding assay, GST-MAT2B", "settings": "recombinant protein from E. coli", "description": "(§1) MAT2A and MAT2B were cloned into pGEX6p3 vector. The constructs were transfected into E. coli BL21. The GST-fusion proteins were induced by IPTG and purified by glutathione beads as described previously (See Liu, beta-Trcp couples beta-catenin phosphorylation-degradation and regulates Xenopus axis formation. Proc Natl Acad Sci USA 1999, 96, 6273-8). For the binding assay, purified proteins were incubated with streptavidin beads and biotinylated FlDAS 13 described above. Eluted proteins were analyzed by western blot with antibodies against GST, MAT2A or MAT2B.\n(§2) Since MAT2A and MAT2B bind each other and form a complex, to determine which subunit directly interacts with FIDAS reagents, recombinant MAT2A and MAT2B were purified and tested for interaction with FIDAS. Briefly, GST-MAT2A and GST-MAT2B fusion proteins were expressed and purified from E. coli. These proteins were incubated with streptavidin beads with or without biotinylated derivative 13 (FIG. 9A). The binding proteins were eluted by 2.5 mM D-biotin and analyzed by Western blot with an anti-GST-Ab."}, "[2]": {"target": "T2, MAT2A-K265L (Homo sapiens, UniProt P31153, K265L)", "T2 construct": "made in house", "T2 sequence (P31153 whole entry K265L)": "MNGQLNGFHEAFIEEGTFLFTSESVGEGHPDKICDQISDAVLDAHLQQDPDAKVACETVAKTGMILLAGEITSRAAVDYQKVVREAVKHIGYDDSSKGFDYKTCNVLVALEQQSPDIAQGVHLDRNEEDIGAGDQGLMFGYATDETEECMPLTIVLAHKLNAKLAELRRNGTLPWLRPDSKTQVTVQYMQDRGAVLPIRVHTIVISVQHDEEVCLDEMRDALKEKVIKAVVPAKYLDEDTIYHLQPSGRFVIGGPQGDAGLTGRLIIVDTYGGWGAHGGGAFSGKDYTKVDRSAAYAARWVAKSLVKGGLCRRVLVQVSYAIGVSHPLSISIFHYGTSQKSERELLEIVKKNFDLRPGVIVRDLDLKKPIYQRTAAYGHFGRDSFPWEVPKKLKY", "assay": "In vitro binding assay, mutant MAT2A (K265L)", "settings": "lysine 265 mutated to leucine", "description": "To test if the halogenated stilbene analogs of the present disclosure also bind MAT1A, a His-tagged MAT1A was cloned in and purified from E. coli. […] According to published MAT structures, several key residues are involved in substrate binding and catalysis. Among these key residues, lysine 265 is conserved between MAT1A and MAT2A and among different species. […] Taken together, the FlDAS reagents are specific inhibitors of MAT2A, and are promising drug candidates for multiple cancers as well as metabolic diseases."}, "[3]": {"target": "MAT2A (Homo sapiens, UniProt P31153)", "sequence (P31153 whole entry)": "as the sequence (P31153 whole entry K265L) above, with L265K counted along it", "assay": "Streptavidin bead pull-down binding assay, GST-MAT2A", "parameters": "GST (N); made in house", "settings": "recombinant protein from E. coli", "description": "as §1, §2"}},
  "data": [
    {"smiles": "CN(CC(=O)NCCOCCOCCNC(=O)CCCCC1SCC2NC(=O)NC21)c1ccc(C=Cc2c(F)cccc2F)cc1", "note": "(stereo not drawn) [compound 13, N-(2-(4-(2,6-Difluorostyryl)phenyl)-4-oxo-8,11-dioxa-2,5-diazamidecan-13-yl)-5-(2-oxohexahydro-1H-thieno[3,4-d]imidazol-4-yl)pentanamide]", "values": [
      {"measurement": "binding to MAT2B", "setting": "[1]", "value": "indirectly through MAT2A"},
      {"measurement": "binding to mutant MAT2A (K265L)", "setting": "[2]", "value": "significantly decreased"},
      {"measurement": "binding to MAT2A", "setting": "[3]", "value": "directly binds"}
    ]}
  ]
}
